# In patent publication US7579378B2, “Sulfonamido compounds that antagonize the vanilloid TRPV1 receptor” (Pharmeste S.R.L., priority 2004, dated 2009):
# Columns and labels:
# [1] = target: T1, TRPV1 expressing rat trigeminal neurons (Rattus norvegicus, UniProt O35433); experiment: Ca2+ fluorescence measurements in cultured rat trigeminal ganglia neurons (capsaicin-induced calcium mobilisation); type: cell-based; details: for IC50: against capsaicin (0.1 μM)-induced calcium mobilisation, 10 minutes incubation prior to capsaicin, mean and 95% fiducial limits
# T1 construct: The ganglia were then dissociated into single cells; endogenous in cells; host or cells: primary cultured trigeminal ganglia neurons from newborn rats
# Method: Newborn rats (2 days old) were terminally anaesthetized and decapitated. The trigeminal ganglia were removed and rapidly placed in cold phosphate buffered solution (PBS) before being transferred to collagenase/dispase (1 mg/ml dissolved in Ca^2+—Mg^2+-free PBS) for 35 min at 37° C. (Rigoni et al, 2003). After the enzymatic treatment ganglia were rinsed three times with Ca^2+—Mg^2+-free PBS and then placed in 2 ml of cold DMEM supplemented with 10% foetal bovine serum (FBS, heat inactivated), 2 mM L-glutamine, 100 u/ml penicillin and […] streptomycin. The ganglia were then dissociated into single cells by several passages through a series of syringe needles (23 G down to 25 G). Finally, the complex of medium and ganglia cells were sieved through a […] filter to remove debris and topped up with 8 ml of DMEM medium and centrifuged (200×g for 5 min). The final cell pellet was re-suspended in DMEM medium (supplemented with 100 ng/ml mouse Nerve Growth Factor (mouse-NGF-7S) and cytosine-b-D-arabino-furanoside free base (ARA-C) 2.5 mM). Cells were plated on poly-L-lysine (8.3 mM) and laminin (5 mM) coated 25 mm glass cover slips and kept for 2 to 5 days at 37° C. in a humidified incubator gassed with 5% CO2 and air. Plated neurons were loaded with Fura-2-AM-ester (3 μM) in Ca^2+ buffer solution of the following composition (mM): CaCl2 1.4, KCl 5.4, MgSO4 0.4, NaCl 135, D-glucose 5, HEPES 10 with BSA 0.1%, at pH 7.4, for 40 min at 37° C., washed twice with the Ca^2+ buffer solution and transferred to a chamber on the stage of Nikon eclipse TE300 microscope. The dye was excited at 340 and 380 nm to indicate relative [Ca^2+]i changes by the F340/F380 ratio recorded with a dynamic image analysis system (Laboratory Automation 2.0, RCS, Florence, Italy). Capsaicin (0.1 μM) and ionomycin (5 μM) were added to the chamber. A calibration curve using a buffer containing Fura-2-AM-ester and determinant concentrations of free Ca^2+ (Kudo et al., 1986) was used to convert the data obtained from F340/F380 ratio to [Ca^2+]i (nM).
# The effects of all compounds were tested against capsaicin-induced calcium mobilisation. Antagonistic compounds were incubated for 10 minutes prior to the capsaicin challenge. The inhibitory effect of the TRPV1 antagonist, capsazepine, was also tested.
# [2] = target: T2, TRPV1 receptor expressed in rat spinal cord (Rattus norvegicus, UniProt O35433); experiment: [3H]-RTX competition binding assay; details: for Ki: [3H]-RTX (0.4 nM) competition, rat spinal cord membranes, mean and 95% fiducial limits; for affinity for the TRPV1 receptor: in vitro, summary statement
# T2 construct: spinal cord was removed and disrupted using a Polytron tissue homogenizer; from tissue; host or cells: rat spinal cord membranes (Sprague-Dawley)
# Method: Male Sprague-Dawley rats with body weight between 250 to 350 g at the time for testing were used. For binding assays rats were sacrificed by decapitation under anesthesia and spinal cord was removed and disrupted using a Polytron tissue homogenizer in ice cold buffer containing 5 mM KCl, 5.8 mM NaCl, 0.75 mM CaCl2, 2 mM MgCl2, 320 mM sucrose, 10 mM Hepes, pH 8.6 (Szallasi and Blunberg, 1992; 1993). Tissue homogenized was centrifuged at 1000×g for 10 min at 4° C. and the sumatant was centrifuged again at 35000×g for 30 min at 4° C. (Beckman Avanti J25). The pellet was resuspended in the same buffer as described above and used in binding experiments. In saturation experiments, 150 μg protein/sample from membrane suspensions were incubated with ([^3H]-Resiniferatoxin, Perkin Elmer, Boston, Mass.) [^3H]-RTX (0.003-3 nM) in the assay buffer containing 0.25 mg/ml fatty acid-free bovine serum albumin at 37° C. for 60 min. In competition experiments, the membranes were incubated at 37° C. for 60 min with [^3H]RTX (0.4 nM) and increasing concentrations of examined compounds in the range from 0.1 nM to 3 μM. Non specific binding was defined in the presence of 1 μM RTX. After incubation the reaction mixture was cooled at 0° C. and incubated with bovine α1-acid glycoprotein (200 μg per tube) for 15 min to reduce non-specific RTX binding. Membrane-bound RTX was separated from the free through the centrifugation of the samples at 18500×g for 15 min. The tip of the microcentrifuge tube containing the pellet was cut off and the radioactivity was determined by scintillation counting (Packard 2500 TR). The protein concentration was determined according to a Bio-Rad method with bovine serum albumin as a standard reference (Bradford, 1976). Saturation and competition studies were analyzed with the program Ligand (Munson and Rodbard, 1980).
# [3] = tested on: capsaicin-induced wiping behaviour; experiment: Wiping test in rats (capsaicin-induced wiping); type: in vivo, rat
# Method: The irritant effect (induction of wiping movements) of capsaicin was assessed by applying capsaicin 3 μg/eye (10 μl) on the rat conjunctiva and the number of wiping movements was recorded during the 60 sec period that followed the application. In other set of experiments, rats were treated intraperitoneally with diverse doses of 14 and capsaicin-induced wiping was studied.
# T1 sequence (O35433 whole entry): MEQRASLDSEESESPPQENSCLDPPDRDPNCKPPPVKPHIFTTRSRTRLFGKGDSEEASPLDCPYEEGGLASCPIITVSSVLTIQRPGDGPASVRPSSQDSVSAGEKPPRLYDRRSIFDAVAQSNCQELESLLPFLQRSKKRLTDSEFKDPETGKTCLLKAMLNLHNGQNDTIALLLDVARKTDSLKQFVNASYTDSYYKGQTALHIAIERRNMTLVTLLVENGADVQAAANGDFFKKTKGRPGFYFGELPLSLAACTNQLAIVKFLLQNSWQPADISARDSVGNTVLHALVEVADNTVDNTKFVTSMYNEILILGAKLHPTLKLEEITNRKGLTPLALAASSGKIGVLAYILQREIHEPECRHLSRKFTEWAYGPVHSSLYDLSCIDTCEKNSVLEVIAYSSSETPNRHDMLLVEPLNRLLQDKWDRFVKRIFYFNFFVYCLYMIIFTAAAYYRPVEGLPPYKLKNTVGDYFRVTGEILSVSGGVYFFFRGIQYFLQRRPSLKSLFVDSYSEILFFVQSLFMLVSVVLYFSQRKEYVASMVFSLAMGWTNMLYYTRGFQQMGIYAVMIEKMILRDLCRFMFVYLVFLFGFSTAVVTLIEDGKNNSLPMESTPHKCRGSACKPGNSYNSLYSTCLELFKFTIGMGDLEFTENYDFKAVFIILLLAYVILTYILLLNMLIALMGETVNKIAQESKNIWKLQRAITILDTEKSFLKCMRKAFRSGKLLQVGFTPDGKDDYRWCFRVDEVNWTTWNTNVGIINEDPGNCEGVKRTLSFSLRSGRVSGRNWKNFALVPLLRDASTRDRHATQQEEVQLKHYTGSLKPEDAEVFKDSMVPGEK
# T2 sequence (O35433 whole entry): as above
SMILES,Ki [2] [nM],affinity for the TRPV1 receptor [2],IC50 [1] [nM],melting point [°C],other results
"COc1cc(CNC(=O)CCCC/C=C/C(C)C)ccc1O [Capsaicin, capsaicin, reference compound]",,,,,rat trigeminal neuronal cells showing an increase in [Ca2+]i ([1]; capsaicin 0.1 μM): 87%
"COc1cc(CNS(=O)(=O)c2ccc(NC(=S)NCc3ccc(C(C)(C)C)cc3)cc2)c(I)cc1O [Compound 14, N-(4-t-butyl-benzyl)-N′-[4-(2-iodo-4-hydroxy-5-methoxy-benzyl)aminosulfonyl]phenyl thiourea]",90,"significantly greater than that of the classic TRPV1 receptor antagonist, capsazepine",60,,"inhibition of capsaicin-induced wiping behaviour ([3]; 1 mg/kg intraperitoneal, 60 minutes prior to the capsaicin challenge (3 μg/eye)): 24%; effect on capsaicin-induced wiping behaviour ([3]; intraperitoneal, 60 minutes prior to the capsaicin challenge, diverse doses): dose dependent reduction"
"COc1cc(CNS(=O)(=O)c2ccc(NC(=S)NCc3ccc(C(F)(F)F)cc3)cc2)c(Cl)cc1O [Compound 19, N-(4-trifluoromethyl-benzyl)-N′-[4-(2-chloro-4-hydroxy-5-methoxy-benzyl)aminosulfonyl]phenyl thiourea]",756,high affinity,270,122,
"COc1cc(CNS(=O)(=O)c2ccc(CCNC(=S)NCc3ccc(C(F)(F)F)cc3)cc2)c(I)cc1O [Compound 33, N-(4-trifluoromethyl-benzyl)-N′-[4-(2-iodo-4-hydroxy-5-methoxy-benzyl)aminosulfonyl-2-phenylethyl]thiourea]",,,,186,
"COc1cc(CNS(=O)(=O)c2ccc(CCNC(=S)NCc3ccc(C(C)(C)C)cc3)cc2)c(I)cc1O [Compound 32, N-(4-t-butyl-benzyl)-N′-[4-(2-iodo-4-hydroxy-5-methoxy-benzyl)aminosulfonyl-2-phenylethyl]thiourea]",,,,195,
"Oc1cc2c(cc1O)CN(C(=S)NCCc1ccc(Cl)cc1)CCC2 [Capsazepine, capsazepine, reference compound]",,,2170,,
"COc1cc(CNS(=O)(=O)c2ccc(NC(=S)NCc3ccc(C(C)(C)C)cc3)cc2)c(Br)cc1O [Compound 20, N-(4-t-butyl-benzyl)-N′-[4-(2-bromo-4-hydroxy-5-methoxy-benzyl)aminosulfonyl]phenyl thiourea]",493,high affinity,212,,
